Source: patent publication US12479866B2, “Boron-containing rho kinase inhibitors” (Percipiad, Inc., priority 2019, dated 2025)

Experiments:
[1] = target: IRAK4 (Homo sapiens (Human), UniProt Q9NWZ3); test: Kinase Selectivity Profiling General Panel (ADP-Glo); assay type: biochemical; conditions: 1 μM compound, read-out: Percent enzyme activity inhibition, IRAK4
Experimental: After this incubation, 5 μl of ADP-Glo™ reagent was added to 5 μl reaction and incubated for 40 minutes. Then, 10 μl of Kinase Detection Reagent added to all assay wells in the assay plate and incubated at room temperature for 30 minutes. […]

[2] = target: CDK2/CyclinE1 (Homo sapiens (Human), UniProt P24941); test: as above; assay type: biochemical; conditions: 1 μM compound, read-out: Percent enzyme activity inhibition, CDK2/CyclinE1
Experimental: After this incubation, 5 μl of ADP-Glo™ reagent was added to 5 μl reaction and incubated for 40 minutes. Then, 10 μl of Kinase Detection Reagent added to all assay wells in the assay plate and incubated at room temperature for 30 minutes.

[3] = target: ROCK2 (Homo sapiens (Human), UniProt O75116); test: Stability in varied buffers and temperatures, measured by ROCK2 inhibition; assay type: physicochemical
Experimental: Stability in Varied Buffers and Temperatures. […] (room temperature), 37° C., 4° C., and −20° C. in water, 150 mM NaCl, pH 5 and 6 buffers, or buffers containing 150 mM NaCl. No visible precipitates were observed after storage.

[4] = Stability in liver microsomes (LC-MS/MS); assay type: in vitro ADME; conditions: Human liver microsomes; for % Remaining of Initial (n = 1): 1 μM
Experimental: Stability in liver microsomes. Experiment was conducted by Absorption Systems. Mixed-gender human liver microsomes (Lot #1210347) were purchased from XenoTech. The reaction mixture, minus NADPH, was prepared (Liver Microsomes 0.5 mg/mL, NADPH (cofactor) 1 mM, potassium phosphate, pH 7.4, 100 mM, MgCl2, 5 mM). The test article was added into the reaction mixture at a final concentration of 1 μM. The control compound, testosterone, was run simultaneously with the test article in a separate reaction. The reaction mixture (without cofactor) was equilibrated in a shaking water bath at 37° C. for 3 minutes. The reaction was initiated by the addition of the cofactor, and the mixture was incubated in a shaking water bath at 37° C. Aliquots (100 μL) were withdrawn at 0, 10, 20, 30, and 60 minutes. Test article and testosterone samples were immediately combined with 400 μL of ice-cold 50/50 acetonitrile (ACN)/H2O containing 0.1% formic acid and internal standard to terminate the reaction. The samples were then mixed and centrifuged to precipitate proteins. […] The peak area response ratio (PARR) to internal standard was compared to the PARR at time 0 to determine the percent remaining at each time point. Half-lives and clearance were calculated using GraphPad software, fitting to a single-phase exponential decay equation.

[5] = Solubility Assay #3, qualitative solubility in borate and citrate buffers; assay type: physicochemical; conditions: borate and citrate buffers at a series of pH values
[6] = test system: primary hTM cells; test: RealTime-Glo MT cell viability assay in hTM cells; assay type: cell-based; conditions: all concentrations and time points (24 h, 48 h, 72 h)
Description: (§1) Commercially available RealTime-Glo™ MT cell viability (Promega, catalog #G9712) and CellTox™ Green cytotoxicity (Promega, catalog #G8731) assays were used in assessing effect of compounds on primary hTM cell viability and cytotoxicity. The RealTime-Glo™ MT cell viability assay is a nonlytic, homogeneous, bioluminescent method that determines the number of viable cells in culture by measuring the reducing potential of cells and thus metabolism (MT). Viable cells reduce the proprietary pro-substrate to generate a substrate for NanoLuc® luciferase. This substrate diffuses from cells into the surrounding culture medium, where it is rapidly used by the NanoLuc® Enzyme to produce a luminescent signal. In a contrasting and complementary manner, CellTox™ Green cytotoxicity assay measures changes in membrane integrity that occur as a result of cell death. This assay system uses a proprietary asymmetric cyanine dye that is excluded from viable cells but preferentially stains the dead cells' DNA. The fluorescent signal produced by the dye binding to the dead-cell DNA is proportional to cytotoxicity.
Human™ cells were cultured and maintained as described in Example 12. Fifty μl cells (600 cells) in culture media containing compound, 25 μl media with RealTime-Glo™ MT cell viability assay reagent and 25 μl media with CellTox™ Green cytotoxicity assay reagent were plated in black, clear bottom 96-well plates. Light emitted by luciferase and fluorescence emitted by dye binding to DNA (excitation 485 nm and emission 525 nm) were measured at 24 h, 48 h, and 72 h after incubation using plate based luminescence and fluorescence plate readers.

[7] = test system: primary hTM cells; test: CellTox Green cytotoxicity assay in hTM cells; assay type: cell-based; conditions: 24 h, 48 h, 72 h
Description: as §1, with “The fluorescent signal produced by the dye binding to the dead-cell DNA is proportional to cytotoxicity.” left out
Human™ cells were cultured and maintained as described in Example 12. […] Light emitted by luciferase and fluorescence emitted by dye binding to DNA (excitation 485 nm and emission 525 nm) were measured at 24 h, 48 h, and 72 h after incubation using plate based luminescence and fluorescence plate readers.

[8] = test system: New Zealand White rabbits; test: Sodium hyaluronate-induced acute ocular hypertension, IOP; assay type: in vivo, rabbit
Description: In all studies, male New Zealand White rabbits were acclimatized for one week before the study. Animals were given food and water ad libitum. Body weights of rabbits ranged from 2 to 3 kg. Animals were trained for the IOP measurement procedure during the acclimation period in order to reduce stress and obtaining more accurate measurements during the study. IOP measurements were taken using the Icare® TONOVET Plus tonometer. […] IOP readings are obtained only when the tonometer is held an appropriate distance and in the correct plane relative to the ocular surface. Green light appears when the orientation is correct, thereby minimizing operator errors. Measurements were performed at the same time of day by the same person using the same instrument. Sodium hyaluronate-induced acute ocular hypertension study. Sodium hyaluronate injection into the anterior chamber of rabbit eye creates acute ocular hypertensive status. […] Another group of four animals with elevated IOP received saline only in right eyes. The left eyes of both groups were instilled topically with 30 μl saline eye drop.

[9] = Solubility Assay #1, equilibrium solubility in pH 7.4 aqueous buffer; conditions: pH 7.4 phosphate buffer, thermodynamic from solid

ROCK2, sequence (O75116 whole entry): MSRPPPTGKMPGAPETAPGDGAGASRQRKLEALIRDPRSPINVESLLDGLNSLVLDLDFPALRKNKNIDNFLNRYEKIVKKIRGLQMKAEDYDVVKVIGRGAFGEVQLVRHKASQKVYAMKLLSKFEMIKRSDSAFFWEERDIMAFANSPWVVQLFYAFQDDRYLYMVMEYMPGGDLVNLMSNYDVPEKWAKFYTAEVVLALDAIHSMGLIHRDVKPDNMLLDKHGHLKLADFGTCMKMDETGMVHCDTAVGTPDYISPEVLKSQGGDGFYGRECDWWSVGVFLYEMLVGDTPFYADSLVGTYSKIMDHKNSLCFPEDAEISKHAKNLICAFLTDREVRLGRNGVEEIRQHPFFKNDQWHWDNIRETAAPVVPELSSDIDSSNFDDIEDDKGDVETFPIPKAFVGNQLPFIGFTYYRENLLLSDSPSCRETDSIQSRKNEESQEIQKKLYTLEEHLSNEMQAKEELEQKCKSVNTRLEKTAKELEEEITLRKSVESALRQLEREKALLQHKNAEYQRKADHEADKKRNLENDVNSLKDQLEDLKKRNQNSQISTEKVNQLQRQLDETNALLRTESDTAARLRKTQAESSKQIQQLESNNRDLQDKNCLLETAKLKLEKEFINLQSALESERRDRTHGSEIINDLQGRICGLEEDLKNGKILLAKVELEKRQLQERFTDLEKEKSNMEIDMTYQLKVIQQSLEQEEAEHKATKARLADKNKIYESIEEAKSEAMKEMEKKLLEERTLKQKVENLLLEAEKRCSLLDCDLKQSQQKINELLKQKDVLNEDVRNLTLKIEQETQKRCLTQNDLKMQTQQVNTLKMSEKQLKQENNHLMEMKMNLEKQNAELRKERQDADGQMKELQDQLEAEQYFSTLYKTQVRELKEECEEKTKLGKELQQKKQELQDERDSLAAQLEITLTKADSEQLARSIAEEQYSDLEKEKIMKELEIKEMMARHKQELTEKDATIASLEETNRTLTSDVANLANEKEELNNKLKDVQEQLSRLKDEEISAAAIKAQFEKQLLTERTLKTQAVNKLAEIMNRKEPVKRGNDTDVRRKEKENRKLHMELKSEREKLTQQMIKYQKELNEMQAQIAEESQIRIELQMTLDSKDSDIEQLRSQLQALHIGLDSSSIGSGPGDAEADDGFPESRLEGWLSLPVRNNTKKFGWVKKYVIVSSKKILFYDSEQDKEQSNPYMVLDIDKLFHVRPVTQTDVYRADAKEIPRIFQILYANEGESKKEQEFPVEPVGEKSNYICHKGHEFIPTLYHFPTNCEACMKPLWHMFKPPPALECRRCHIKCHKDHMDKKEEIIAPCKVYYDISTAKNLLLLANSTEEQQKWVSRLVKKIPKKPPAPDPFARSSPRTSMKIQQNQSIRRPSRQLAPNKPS
IRAK4, sequence (Q9NWZ3 whole entry): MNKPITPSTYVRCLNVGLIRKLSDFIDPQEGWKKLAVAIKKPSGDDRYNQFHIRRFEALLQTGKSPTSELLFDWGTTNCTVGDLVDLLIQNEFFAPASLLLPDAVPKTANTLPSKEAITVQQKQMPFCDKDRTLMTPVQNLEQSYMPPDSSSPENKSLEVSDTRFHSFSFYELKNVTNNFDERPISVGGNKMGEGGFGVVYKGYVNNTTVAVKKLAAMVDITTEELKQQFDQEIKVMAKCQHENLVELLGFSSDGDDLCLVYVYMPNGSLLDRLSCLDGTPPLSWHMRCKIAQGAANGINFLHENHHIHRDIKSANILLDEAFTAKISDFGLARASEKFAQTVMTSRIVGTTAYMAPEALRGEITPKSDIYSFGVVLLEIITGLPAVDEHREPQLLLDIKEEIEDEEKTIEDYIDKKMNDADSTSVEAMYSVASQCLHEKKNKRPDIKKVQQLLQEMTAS

With Cl.Cl.NCC(C(=O)Nc1ccc2cnccc2c1)c1ccc(B(O)O)cc1 (centres unmarked) [Compound 10•2HCl] the inhibition at 1 µM [1] was 0%, the inhibition at 1 µM [2] was 11% and the “% ROCK2 inhibition at 20 nM” value ([3]; 25 mM Borate pH 5 (0.5 mg/ml), 15 days at 23° C.) was 31%. For the same molecule, the “% ROCK2 inhibition at 20 nM” value ([3]; 25 mM Borate, pH 5 (0.5 mg/ml), 15 days at −20° C.) was 32%, the “% ROCK2 inhibition at 20 nM” value ([3]; 25 mM Borate, pH 5, 150 mM NaCl (0.5 mg/ml), 15 days at 23° C.) was 29% and the “% ROCK2 inhibition at 20 nM” value ([3]; 150 mM NaCl (0.5 mg/ml), 0 days at 23° C.) was 35%. The “% ROCK2 inhibition at 20 nM” value ([3]; 150 mM NaCl (0.5 mg/ml), 15 days at 23° C.) was 35%, the “% ROCK2 inhibition at 20 nM” value ([3]; 150 mM NaCl (2 mg/ml), 120 days at 4° C.) was 31% and the “% ROCK2 inhibition at 20 nM” value ([3]; 150 mM NaCl (2 mg/ml), 120 days at 37° C.) was 35%. The Stability in solution ([3]; 150 mM NaCl, 37° C. and 4° C.) was “stable for 4 months”, the “% ROCK2 inhibition at 20 nM” value ([3]; Water (0.5 mg/ml), 15 days at 23° C.) was 34% and the “% ROCK2 inhibition at 20 nM” value ([3]; Water (0.5 mg/ml), 15 days at −20° C.) was 33%. For the same molecule, the “% Remaining of Initial (n = 1)” value ([4]; 0 min) was 100%, the “% Remaining of Initial (n = 1)” value ([4]; 10 min) was 98.0% and the “% Remaining of Initial (n = 1)” value ([4]; 20 min) was 91.5%. For the same molecule, the “% Remaining of Initial (n = 1)” value ([4]; 30 min) was 89.6%, the “% Remaining of Initial (n = 1)” value ([4]; 60 min) was 80.8% and the half-life at 1 μM ([4]; both sexes, pH 7.4) was greater than 1 h. The microsomal CLint at 1 μM ([4]; both sexes, pH 7.4) was less than 23.1 µL/min/mg, the “pH at which precipitation occurs” value [5] was roughly 8.5 and the “Effect on viability (in words)” value [6] was “no effect on viability or membrane integrity”. The “Cytotoxicity / membrane integrity (in words)” value [7] was “no effect on viability or membrane integrity”, the “Duration of IOP effect” value ([8]; experiment 1, 1 mg/ml eye drop) was 6 h and the “Effect on IOP compared to saline only group” value ([8]; experiment 1, 30 μl eye drop in saline (1 mg/ml, 2.34 mM) two hours after hyaluronate injection) was “decreased IOP significantly within 1 hour after application”. For the same molecule, the “Effect on IOP” value ([8]; experiment 2, compound 10.2HCl 1 mg/ml (2.34 mM), Netarsudil.2HCl 0.25 mg/ml (0.47 mM), 30 μL eye drop) was “reduced IOP significantly within 1 hour after eye drop application” and the solubility [9] was 39.1 µM.
